ChEMBL document CHEMBL1152995, “Combined real-time PCR and pyrosequencing strategy for objective, sensitive, specific, and high-throughput identification of reduced susceptibility to penicillins in Neisseria meningitidis” (2008)
In brackets after ≈: the same amount, converted by molar mass.

Assays:
[1] = test system: Neisseria meningitidis; experiment: Antibacterial activity against penicillin-intermediate resistant Neisseria meningitidis clinical isolates harbouring altered penA gene after 24 hrs by Etest method; type: functional
[2] = test system: Neisseria meningitidis; experiment: Antibacterial activity against penicillin-intermediate resistant Neisseria meningitidis after 24 hrs by Etest method; type: functional

SMILES | MIC [1] [µg/mL] | MIC [2] [µg/mL]
CC1(C)S[C@@H]2[C@H](NC(=O)[C@H](N)c3ccccc3)C(=O)N2[C@H]1C(=O)O [AMPICILLIN] | > 0.064 | –
CO/N=C(\C(=O)N[C@@H]1C(=O)N2C(C(=O)O)=C(COC(C)=O)CS[C@H]12)c1csc(N)n1 [CEFOTAXIME] | ≤ 0.012 | –
CC1(C)S[C@@H]2[C@H](NC(=O)Cc3ccccc3)C(=O)N2[C@H]1C(=O)O [PENICILLIN G] | > 0.094 | 0.064 (≈ 0.191 µM)
